Patent US12144785B2, “Composition of vitamin K and vitamin D for treating or preventing cardiovascular disease” (NATTOPHARMA AS, priority 2002, dated 2024)

Test system: thoracic aorta
Assay: Aortic calcification in warfarin-treated rats: total calcium in thoracic aorta extract by atomic absorptiometry
Type: in vivo
Conditions: for Pre-formed calcium crystals / aortic calcification on high vitamin K diet: "high K": 6 weeks warfarin, then 6 weeks diet with 100 μg/g vitamin K, FIG. 6, means of K1 and K2 groups; for Difference between the outcomes for K1 and K2: high vitamin K diet after 6 weeks warfarin
Protocol: We performed and experiment using 48 rats. Each point in the various curves shown in FIGS. 3-6 is the mean of six rats, which were sacrificed. The thoracic aorta was dissected, homogenized, and precipitated calcium salts were dissolved in formic acid. The total calcium concentration in the extract was assessed by atomic absorptiometry, and is expressed as microgram calcium per gram of tissue.
Six of them were killed at baseline, six after 6 weeks, and the last six after 12 weeks. Apart from the cellular calcium, no accretion of calcium was observed during the test period. […] The protocol used involves the oral administration of a mixture of warfarin (3 mg/g of food) and vitamin K1 (1.5 mg/g of food) and is explained extensively in: H. M. H. Spronk et al, Tissue-specific utilization of menaquinone-4 results in the prevention of arterial calcification in warfarin-treated rats, Journal of Vascular Research 2003; 40:531-537. This treatment is designated as “low K”. Six rats were killed after 6 weeks of treatment, and another six after 12 weeks of treatment.
The other rats were first treated for six weeks with warfarin. One group of animals was subsequently fed the standard diet containing 5 μg vitamin K per g of food (indicated as “norm K”). […] Apparently, the presence of calcium precipitates is a sufficient trigger to continue further calcification (see FIG. 5) when using a normal diet.
Finally, we used two groups of six rats who had received the first 6-week treatment with warfarin, and a high vitamin K diet in the second 6-week period. One group received a diet containing […] of vitamin K1, the other one a diet containing 100 μg/g of vitamin K2 (menaquinone-4). Since there was no difference between the outcomes for K1 and K2, we present the means of both groups in FIG. 6 (designated as “high K”). […] This may be related to the relatively high dose used, and different efficacies may still be found from dose-response experiments. […] It may be expected that after prolonged treatment all calcified precipitates will dissolve by high vitamin K intake. The dose used for dissolving calcified precipitates in the aorta was 20 times the normal dose used (compared to the recommended allowance in humans). If extrapolated to humans the effective intake of vitamin K should thus be increased from 100 μg/day to 2 mg/day. Experiments in which lower doses are used will be initiated. However, it is likely that a similar effect will be observed at lower doses, even as low as 1-2 times the normal daily intake. This will depend upon factors such as vitamin K absorption since synthetic supplemented vitamin K is typically absorbed better (e.g. 10-20 fold) than nutritional vitamin K (e.g. which may be bound to chloroplasts in the food matrix).

| Compound | Pre-formed calcium crystals / aortic calcification on high vitamin K diet | Difference between the outcomes for K1 and K2 | Calcium in the arterial wall ("low K": warfarin 3 mg/g food + vitamin K1 1.5 mg/g food, oral, 6 and 12 weeks, FIG. 4) | Aortic calcification after change to the standard diet ("norm K": 6 weeks warfarin, then standard diet with 5 μg vitamin K per g of food, FIG. 5) |
| --- | --- | --- | --- | --- |
| CC1=C(C/C=C(\C)CCC[C@H](C)CCC[C@H](C)CCCC(C)C)C(=O)c2ccccc2C1=O [vitamin K1, phylloquinone] | dissolved to a great deal | no difference | – | – |
| CC(C)=CCC/C(C)=C/CC/C(C)=C/CC/C(C)=C/CC1=C(C)C(=O)c2ccccc2C1=O [vitamin K2, menaquinone-4] | dissolved to a great deal | no difference | – | – |
| CC(=O)CC(c1ccccc1)c1c(O)c2ccccc2oc1=O (stereo not drawn) [warfarin] | – | – | constant increase | – |
| vitamin K | – | – | – | did not stop |
